From paper PMC3347530, “Atomic Resolution Crystal Structure of NAD^+-Dependent Formate Dehydrogenase from Bacterium Moraxella sp. C-1” (Acta Naturae, 2009)

Target: T1, MorFDH (NAD+-dependent formate dehydrogenase from Moraxella sp. C-1) (Moraxella sp., UniProt O08375)
T1 construct: gene fdh; homodimer; 399 residues located, last two C-terminal residues not seen
T1 sequence (O08375 2-402): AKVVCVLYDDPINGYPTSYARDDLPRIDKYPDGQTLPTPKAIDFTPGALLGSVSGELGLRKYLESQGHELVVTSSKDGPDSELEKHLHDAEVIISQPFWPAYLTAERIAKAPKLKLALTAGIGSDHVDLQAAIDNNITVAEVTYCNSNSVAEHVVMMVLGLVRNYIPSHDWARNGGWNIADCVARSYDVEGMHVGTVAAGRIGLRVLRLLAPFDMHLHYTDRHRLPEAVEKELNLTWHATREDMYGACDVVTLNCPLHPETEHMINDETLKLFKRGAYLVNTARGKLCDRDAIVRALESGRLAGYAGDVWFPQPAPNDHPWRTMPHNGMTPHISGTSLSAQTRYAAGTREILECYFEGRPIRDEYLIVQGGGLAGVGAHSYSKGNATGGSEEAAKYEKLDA
Experiment: X-ray crystal structure, […] A
Format: binding
Settings: active site, co-crystallised with 5 mM NAD+ and 5 mM sodium azide, protein in pH 7.0 phosphate, reservoir pH 6.5, 20 C

| SMILES | X-ray crystal structure, 1.1 A (ternary complex with azide) | X-ray crystal structure, 1.1 A (ternary complex with NAD+, inhibitor, transition-state mimic) |
| --- | --- | --- |
| NC(=O)c1ccc[n+]([C@@H]2O[C@H](COP(=O)(O)OP(=O)(O)OC[C@H]3O[C@@H](n4cnc5c(N)ncnc54)[C@H](O)[C@@H]3O)[C@@H](O)[C@H]2O)c1 [NAD+] | The NAD ^+ molecule and one azide ion are bound in the active site of the enzyme |  |
| [N-]=[N+]=[N-] [azide ion] |  | The NAD ^+ molecule and one azide ion are bound in the active site of the enzyme |
